Source: US20170121344A1 (Siga Technologies, Inc., priority 2009, published 2017)
Read-outs that look alike come from different tables or passages of the source.

System: Dengue-2 (Strain New Guinea C)
Experiment: Viral yield assay against Dengue-2 in Vero cells
Format: cell-based, Dengue virus
Conditions: Dengue virus, read-out: Activity (EC50 in μM) DENV-2
Method in brief: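 Vero cells were infected with dengue-2 at MOI 0.1, treated with compound (DMSO control), and kept at 37° C. They were harvested 48 hours post infection and yield was titered on Vero cells. EC50 came from the yield curve, and the other serotypes were run in a similar way.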

[1] = DENV2, viral yield assay, Vero cells, MOI 0.1, 48 hours post infection

Row | Compound | EC50 (DENV2, Vero, 48 h) [µM] | EC50 [1] [µM]
1 | COc1cccc(-c2ccc3c(N)c(C(=O)Nc4ccc(C(C)=O)cc4)sc3n2)c1 [Compound 513, N-(4-acetylphenyl)-3-amino-6-(3-methoxyphenyl)thieno[2,3-b]pyridine-2-carboxamide] | < 5 | 
2 | COc1cccc(-c2ccc3c(N)c(C(=O)Nc4cccc(F)c4C)sc3n2)c1 [Compound 515, 3-amino-N-(3-fluoro-2-methyl-phenyl)-6-(3-methoxyphenyl)thieno[2,3-b] pyridine-2-carboxamide] |  | < 5
3 | COc1cccc(-c2ccc3c(N)c(C(=O)Nc4cc(F)ccc4F)sc3n2)c1 [Compound 516, 3-amino-N-(2,5-difluorophenyl)-6-(3-methoxyphenyl)thieno[2,3-b]pyridine-2-carboxamide] |  | < 5
4 | CCOc1ccccc1NC(=O)c1sc2nc(-c3ccc4c(c3)OCO4)ccc2c1N [Compound 517, 3-amino-6-(1,3-benzodioxol-5-yl)-N-(2-ethoxyphenyl)thieno[2,3-b]pyridine-2-carboxamide] |  | < 5
5 | COc1ccc(OC)c(NC(=O)c2sc3nc(-c4ccc(OC)c(OC)c4)ccc3c2N)c1 [Compound 518, 3-amino-N-(2,5-dimethoxyphenyl)-6-(3,4-dimethoxyphenyl)thieno[2,3-b]pyridine-2-carboxamide] |  | < 5
6 | COc1cccc(-c2ccc3c(N)c(C(=O)Nc4ccc(Cl)cc4F)sc3n2)c1 [Compound 519, 3-amino-N-(4-chloro-2-fluoro-phenyl)-6-(3-methoxyphenyl)thieno[2,3-b]pyridine-2-carboxamide] |  | < 5
7 | COc1cccc(-c2ccc3c(N)c(C(=O)Nc4cc(OC)c(OC)c(OC)c4)sc3n2)c1 [Compound 520, 3-amino-6-(3-methoxyphenyl)-N-(3,4,5-trimethoxyphenyl)thieno[2,3-b]pyridine-2-carboxamide] |  | < 5
8 | COc1cccc(-c2ccc3c(N)c(C(=O)Nc4ccccc4C)sc3n2)c1 [Compound 521, 3-amino-6-(3-methoxyphenyl)-N-(o-tolyl)thieno[2,3-b]pyridine-2-carboxamide] |  | < 5
9 | COc1cccc(-c2ccc3c(N)c(C(=O)Nc4ccc(C)c(F)c4)sc3n2)c1 [Compound 523, 3-amino-N-(3-fluoro-4-methyl-phenyl)-6-(3-methoxyphenyl)thieno[2,3-b] pyridine-2-carboxamide] |  | < 5
10 | COc1ccc(-c2ccc3c(N)c(C(=O)Nc4cc(C)ccc4C)sc3n2)cc1OC [Compound 524, 3-amino-6-(3,4-dimethoxyphenyl)-N-(2,5-dimethylphenyl)thieno[2,3-b]pyridine-2-carboxamide] |  | < 5
11 | COc1cccc(-c2ccc3c(N)c(C(=O)Nc4ccc(F)c(F)c4)sc3n2)c1 [Compound 525, 3-amino-N-(3,4-difluorophenyl)-6-(3-methoxyphenyl)thieno[2,3-b]pyridine-2-carboxamide] |  | < 5
12 | COc1cccc(-c2ccc3c(N)c(C(=O)Nc4ccc(F)c(Cl)c4)sc3n2)c1 [Compound 526, 3-amino-N-(3-chloro-4-fluoro-phenyl)-6-(3-methoxyphenyl)thieno[2,3-b] pyridine-2-carboxamide] |  | < 5
13 | COc1ccc(NC(=O)c2sc3nc(-c4ccc(Cl)cc4)ccc3c2N)cc1 [Compound 527, 3-amino-6-(4-chlorophenyl)-N-(4-methoxyphenyl)thieno[2,3-b]pyridine-2-carboxamide] |  | < 5
14 | Cc1ccc(NC(=O)c2sc3nc(-c4ccc5c(c4)OCO5)ccc3c2N)cc1C [Compound 528, 3-amino-6-(1,3-benzodioxol-5-yl)-N-(3,4-dimethylphenyl)thieno[2,3-b]pyridine-2-carboxamide] |  | < 5
15 | COc1ccc(C(F)(F)F)cc1NC(=O)c1sc2nc(-c3ccc(OC)c(OC)c3)ccc2c1N [Compound 531, 3-amino-6-(3,4-dimethoxyphenyl)-N-[2-methoxy-5-(trifluoromethyl)phenyl]thieno [2,3-b]pyridine-2-carboxamide] |  | < 5
